In the experiment the target is T1, ANO1 (Homo sapiens, UniProt Q5XXA6, DEL476-501).
T1 sequence (Q5XXA6 with tags, fused parts or gaps isoform Q5XXA6-5 DEL539-564): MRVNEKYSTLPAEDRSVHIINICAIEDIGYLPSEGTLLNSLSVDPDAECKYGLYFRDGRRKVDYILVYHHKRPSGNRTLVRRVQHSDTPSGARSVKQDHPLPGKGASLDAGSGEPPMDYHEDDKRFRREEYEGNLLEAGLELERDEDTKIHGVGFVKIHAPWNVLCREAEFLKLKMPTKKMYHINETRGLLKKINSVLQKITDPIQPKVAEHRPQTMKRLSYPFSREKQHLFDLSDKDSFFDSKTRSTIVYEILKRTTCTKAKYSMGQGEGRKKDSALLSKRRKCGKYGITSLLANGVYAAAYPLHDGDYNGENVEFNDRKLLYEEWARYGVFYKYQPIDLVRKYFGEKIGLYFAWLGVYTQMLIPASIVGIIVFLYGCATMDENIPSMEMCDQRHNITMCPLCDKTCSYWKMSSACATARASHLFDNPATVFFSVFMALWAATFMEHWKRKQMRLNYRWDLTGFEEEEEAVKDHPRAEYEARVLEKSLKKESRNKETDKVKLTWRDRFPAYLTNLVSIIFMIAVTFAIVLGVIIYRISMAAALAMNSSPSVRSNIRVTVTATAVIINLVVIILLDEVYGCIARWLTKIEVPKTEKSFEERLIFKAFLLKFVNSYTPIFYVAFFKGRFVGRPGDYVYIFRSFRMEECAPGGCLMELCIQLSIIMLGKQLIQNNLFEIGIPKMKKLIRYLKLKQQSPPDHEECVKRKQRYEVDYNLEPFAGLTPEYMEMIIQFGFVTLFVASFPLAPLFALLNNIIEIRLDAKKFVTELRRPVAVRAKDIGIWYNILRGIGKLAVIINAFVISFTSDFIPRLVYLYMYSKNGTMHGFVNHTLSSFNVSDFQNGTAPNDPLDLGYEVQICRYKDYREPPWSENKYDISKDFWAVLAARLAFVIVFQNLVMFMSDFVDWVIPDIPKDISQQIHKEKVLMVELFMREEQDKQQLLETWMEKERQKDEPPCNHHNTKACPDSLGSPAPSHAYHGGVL
Kind of experiment: Whole-cell patch-clamp in ANO1-expressing FRT cells. The experiment is classed as cell-based. The settings on record: 100 μM ATP, read-out: Inhibition of ANO1 chloride currents. As for the experimental part:
Patch-clamp recordings were performed on ANO1-expressing FRT cells using the whole-cell recording configuration. The bath solution contained (in mM): 140 NMDG-Cl, 1 CaCl2, 1 MgCl2, 10 glucose and 10 HEPES (pH 7.4). The pipette solution contained (in mM): 130 CsCl, 0.5 EGTA, 1 MgCl2, 1 Tris-ATP, and 10 HEPES (pH 7.2). Pipettes were pulled from borosilicate glass and had resistances of 3–5 MΩ after fire polishing. Seal resistances were between 3 and 10 GΩ. The liquid junction potential (~2.4 mV) was not corrected. After establishing the whole-cell configuration, whole-cell capacitance and series resistance were compensated with the amplifier circuitry. After establishing the whole-cell configuration, ANO1 was activated by ATP (100 μM). Whole-cell currents were elicited by applying hyperpolarizing and depolarizing voltage pulses from a holding potential of 0 mV to potentials between -80 mV and +80 mV in steps of 20 mV. Recordings were made at room temperature using an Axopatch-200B (Axon Instruments, Union City, CA). Currents were digitized and analyzed using a Digidata 1440A converter (Axon Instruments), and pCLAMP 10.2 software (Molecular Devices, Sunnyvale, CA). Currents were low-pass filtered at 1 kHz and sampled at 5 kHz.
In general terms: Patch clamp records ionic current or voltage across a cell membrane.

The inhibition is the drop in the measured response relative to a control, in per cent.

`O=c1cc(-c2ccc(O)c(O)c2)oc2cc(O)cc(O)c12` [luteolin]: the inhibition at 10 µM (10 μM) is 55.3 ± 2.8%. The inhibition at 100 µM (100 μM) stood at 99.2 ± 0.2%.

Values taken from paper PMC5376326, “Inhibition of ANO1 by luteolin and its cytotoxicity in human prostate cancer PC-3 cells” (PLoS ONE, 2017).
